ChEMBL document CHEMBL3885861, “Open TG-GATES”

Organism: Rattus norvegicus
Test: Open TG-GATES - Regimen: Single
Format: toxicity, organism-based, Sprague-Dawley
Design: regimen Single, gender Male, age 6 weeks
Details: in vivo, po, 15 mg/kg, route gavage, dose level Middle; for APTT / Bas / Eos / Fbg / Hb / Ht / Lym / MCH / MCHC / MCV / Mono / Neu / PT / Plat / RBC / Ret / WBC: tissue Blood; for KIDNEY_L / KIDNEY_R / KIDNEY_TOTAL: tissue Kidney; for LIVER: tissue Liver; for A/G / ALP / ALT / AST / BUN / CRE / Ca / Cl / DBIL / GLC / IP / K / LDH / Na / PL / RALB / TBIL / TC / TG / TP / gamma-GTP: tissue Plasma

## CC(=N)S [THIOACETAMIDE]
3 h
  TERMINAL_BW: 190.8 g
  APTT: 16.9 s
  Bas: 0%
  Eos: 0.2%
  Fbg: 228 mg/dL
  Hb: 13.2 g/dL
  Ht: 39.8%
  Lym: 82%
  MCH: 21.7 pg
  MCHC: 33.1%
  MCV: 65.4 fL
  Mono: 8%
  Neu: 10%
  PT: 12.4 s
  Plat: 102.8 x10_4/uL
  RBC: 608.5 x10_4/ul
  Ret: 10%
  WBC: 130 x10_2/uL
  KIDNEY_L: 0.9 g
  KIDNEY_R: 0.9 g
  KIDNEY_TOTAL: 1.8 g
  LIVER: 8.9 g
  A/G: 2.4
  ALP: 868.5 IU/L
  ALT: 33.8 IU/L
  AST: 71 IU/L
  BUN: 11.8 mg/dL
  CRE: 0.5 mg/dL
  Ca: 10.9 mg/dL
  Cl: 104.5 meq/L
  DBIL: 0.0025 mg/dL
  GLC: 175.8 mg/dL
  IP: 9.6 mg/dL
  K: 4.4 meq/L
  LDH: 84.2 IU/L
  Na: 138.8 meq/L
  PL: 141.5 mg/dL
  RALB: 4 g/dL
  TBIL: 0.3 mg/dL
  TC: 81.5 mg/dL
  TG: 55 mg/dL
  TP: 5.7 g/dL
  gamma-GTP: 3.2 IU/L
6 h
  TERMINAL_BW: 187.8 g
  APTT: 17.2 s
  Bas: 0%
  Eos: 0.6%
  Fbg: 224.8 mg/dL
  Hb: 13.4 g/dL
  Ht: 40.5%
  Lym: 74.6%
  MCH: 21.6 pg
  MCHC: 33.2%
  MCV: 65.1 fL
  Mono: 5.8%
  Neu: 19.4%
  PT: 12.7 s
  Plat: 97.4 x10_4/uL
  RBC: 621.2 x10_4/ul
  Ret: 10%
  WBC: 125.4 x10_2/uL
  KIDNEY_L: 0.9 g
  KIDNEY_R: 0.9 g
  KIDNEY_TOTAL: 1.8 g
  LIVER: 8.4 g
  A/G: 2.1
  ALP: 924.4 IU/L
  ALT: 33 IU/L
  AST: 70.4 IU/L
  BUN: 10.2 mg/dL
  CRE: 0.6 mg/dL
  Ca: 10.5 mg/dL
  Cl: 104 meq/L
  DBIL: 0.022 mg/dL
  GLC: 171.4 mg/dL
  IP: 9.1 mg/dL
  K: 4.9 meq/L
  LDH: 77 IU/L
  Na: 137.2 meq/L
  PL: 142.8 mg/dL
  RALB: 3.7 g/dL
  TBIL: 0.4 mg/dL
  TC: 80 mg/dL
  TG: 73 mg/dL
  TP: 5.4 g/dL
  gamma-GTP: 1 IU/L
9 h
  TERMINAL_BW: 183.3 g
  APTT: 17.2 s
  Bas: 0%
  Eos: 0.6%
  Fbg: 226 mg/dL
  Hb: 13.2 g/dL
  Ht: 40.2%
  Lym: 67.2%
  MCH: 21.5 pg
  MCHC: 33%
  MCV: 65.1 fL
  Mono: 8.8%
  Neu: 23.4%
  PT: 13.3 s
  Plat: 107 x10_4/uL
  RBC: 617.4 x10_4/ul
  Ret: 9.1%
  WBC: 126.9 x10_2/uL
  KIDNEY_L: 0.8 g
  KIDNEY_R: 0.8 g
  KIDNEY_TOTAL: 1.7 g
  LIVER: 7.7 g
  A/G: 2.2
  ALP: 887.6 IU/L
  ALT: 31.6 IU/L
  AST: 71.6 IU/L
  BUN: 12.6 mg/dL
  CRE: 0.5 mg/dL
  Ca: 10.2 mg/dL
  Cl: 104.2 meq/L
  DBIL: 0.006 mg/dL
  GLC: 178.2 mg/dL
  IP: 9.8 mg/dL
  K: 4.5 meq/L
  LDH: 93.6 IU/L
  Na: 137.2 meq/L
  PL: 122.6 mg/dL
  RALB: 3.8 g/dL
  TBIL: 0.5 mg/dL
  TC: 71.6 mg/dL
  TG: 40.6 mg/dL
  TP: 5.6 g/dL
  gamma-GTP: 1.4 IU/L
24 h
  TERMINAL_BW: 202.6 g
  APTT: 16.4 s
  Bas: 0%
  Eos: 1%
  Fbg: 231.6 mg/dL
  Hb: 13.5 g/dL
  Ht: 40.7%
  Lym: 83.8%
  MCH: 21.9 pg
  MCHC: 33.1%
  MCV: 66.1 fL
  Mono: 6.2%
  Neu: 9%
  PT: 12.8 s
  Plat: 107.7 x10_4/uL
  RBC: 616 x10_4/ul
  Ret: 9.1%
  WBC: 163 x10_2/uL
  KIDNEY_L: 1 g
  KIDNEY_R: 0.9 g
  KIDNEY_TOTAL: 1.9 g
  LIVER: 10.2 g
  A/G: 2
  ALP: 915.6 IU/L
  ALT: 44.4 IU/L
  AST: 71 IU/L
  BUN: 17.2 mg/dL
  CRE: 0.5 mg/dL
  Ca: 10.6 mg/dL
  Cl: 103.8 meq/L
  DBIL: 0.014 mg/dL
  GLC: 179.6 mg/dL
  IP: 7.5 mg/dL
  K: 5.1 meq/L
  LDH: 98.6 IU/L
  Na: 137 meq/L
  PL: 164 mg/dL
  RALB: 3.9 g/dL
  TBIL: 0.3 mg/dL
  TC: 85.2 mg/dL
  TG: 149.8 mg/dL
  TP: 5.8 g/dL
  gamma-GTP: 2.4 IU/L
